Source: patent US4281136A, “2-Alkyl-3-haloisothiazolium salts and their derivatives” (Givaudan Corporation, priority 1978, dated 1981)
Converted amounts (≈) assume the structure as drawn. Read-outs that look alike come from different tables or passages of the source. One block for each compound: values may come before it.

Assays:
Aureobasidium pullulans = experiment: preservative for latex paints; assay type: cell-based; conditions: for Surface (growth on the surface of painted square): none, medium or heavy; for Zone (zone of inhibition): listed as CH3, Cl, Cl
Description: Various quantities of the chemical were incorporated into a white exterior vinyl acetate paint. Whatman #30 filter paper was painted with one coat of paint on each side. One inch squares were cut and placed in Petri dishes on a malt agar.
The surface of both the agar and the painted squares were inoculated with a spore suspension of Aureobasidium pullulans. The plates were examined for zones of inhibition and surface growth after three weeks incubation in a humidity chamber at 27°-28°.
Various quantities of 4,5-dichloro-2-methyl-4-isothiazolin-3-thione were incorporated into a white exterior vinyl acetate paint and tested as described in Example IV.

Ps. aeruginosa = experiment: preservative for cutting oil emulsions; assay type: cell-based; conditions: for Minimum Inhibitory Concentration: listed as CH3, Cl; for MIC: Pseudomonas aeruginosa
Description: Various aliquots of a 6% solution of the chemical in ethanol were added to cutting oil emulsions prepared by diluting Kutwell 30 cutting oil concentrate 1 to 30 with water. These samples were inoculated with a culture of Ps. aeruginosa and incubated at 28° on a rotary shaker. At weekly intervals the samples were examined for microorganisms and then reinoculated and incubated.

[1] = 168 h, cutting oil emulsion, incubation 1 week, 28°, read-out: Minimum Inhibitory Concentration
[2] = 336 h, cutting oil emulsion, incubation 2 weeks, 28°, read-out: Minimum Inhibitory Concentration
[3] = 504 h, cutting oil emulsion, incubation 3 weeks, 28°, read-out: Minimum Inhibitory Concentration
[4] = 672 h, cutting oil emulsion, incubation 4 weeks, 28°, read-out: Minimum Inhibitory Concentration
[5] = 168 h, read-out: Minimum Inhibitory Concentration, cutting oil emulsion, incubation 1 week, 28°
[6] = 336 h, read-out: Minimum Inhibitory Concentration, cutting oil emulsion, incubation 2 weeks, 28°
[7] = 504 h, read-out: Minimum Inhibitory Concentration, cutting oil emulsion, incubation 3 weeks, 28°
[8] = 672 h, read-out: Minimum Inhibitory Concentration, cutting oil emulsion, incubation 4 weeks, 28°

Structure (SMILES): CC[n+]1sc(Cl)c(Cl)c1Cl [Et, Cl, Cl, Cl, O3SCF3]
zone of inhibition at 0.25 % (Aureobasidium pullulans; Aureobasidium pullulans, 504 h, Conc. 0.25% in vinyl acetate paint, three weeks, 27°-28°, read-out: Zone (zone of inhibition)): 20 mm | zone of inhibition at 0.5 % (Aureobasidium pullulans; Aureobasidium pullulans, 504 h, Conc. 0.5% in vinyl acetate paint, three weeks, 27°-28°, read-out: Zone (zone of inhibition)): 20 mm | Surface (growth on the surface of painted square) (Aureobasidium pullulans; Conc. 0.25% in vinyl acetate paint, three weeks, 27°-28°): None | Surface (growth on the surface of painted square) (Aureobasidium pullulans; Conc. 0.5% in vinyl acetate paint, three weeks, 27°-28°): None

Structure (SMILES): C[n+]1sc(Cl)c(Cl)c1Cl [No. 1 (Table I), 2-Methyl-3,4,5-trichloroisothiazolium fluorosulfonate]
Minimum Inhibitory Concentration (Ps. aeruginosa; cutting oil emulsion, incubation 1 week, 28°, Cl, O3SF): < 16 µg/mL | Minimum Inhibitory Concentration (Ps. aeruginosa; cutting oil emulsion, incubation 2 weeks, 28°, Cl, O3SF): < 16 µg/mL | Minimum Inhibitory Concentration (Ps. aeruginosa; cutting oil emulsion, incubation 3 weeks, 28°, Cl, O3SF): < 16 µg/mL | Minimum Inhibitory Concentration (Ps. aeruginosa; cutting oil emulsion, incubation 4 weeks, 28°, Cl, O3SF): < 16 µg/mL | zone of inhibition at 0.5 % (Aureobasidium pullulans; Aureobasidium pullulans, 504 h, read-out: Zone (zone of inhibition), Conc. 0.5% in vinyl acetate paint, three weeks, 27°-28°): > 20 mm | Zone (zone of inhibition) (Aureobasidium pullulans; Conc. 0.25% in vinyl acetate paint, three weeks, 27°-28°, O3SF): 0 mm

MIC (Ps. aeruginosa; [1]): 16 µg/mL (≈ 74.7 µM) | MIC (Ps. aeruginosa; [2]): 32 µg/mL (≈ 149 µM) | MIC (Ps. aeruginosa; [3]): 62 µg/mL (≈ 290 µM) | MIC (Ps. aeruginosa; [4]): 62 µg/mL (≈ 290 µM)
Structure (SMILES): CCn1sc(Cl)c(Cl)c1=S [No. 2 (Table VIII)]

Structure (SMILES): C[n+]1sc(Cl)c(Cl)c1Cl [No. 3 (Table I), 2-Methyl-3,4,5-trichloroisothiazolium hexachloroantimonate]
Minimum Inhibitory Concentration (Ps. aeruginosa; cutting oil emulsion, incubation 1 week, 28°, Cl, SbCl6): 2 µg/mL | Minimum Inhibitory Concentration (Ps. aeruginosa; cutting oil emulsion, incubation 2 weeks, 28°, Cl, SbCl6): 2 µg/mL | Minimum Inhibitory Concentration (Ps. aeruginosa; cutting oil emulsion, incubation 3 weeks, 28°, Cl, SbCl6): 2 µg/mL | Minimum Inhibitory Concentration (Ps. aeruginosa; cutting oil emulsion, incubation 4 weeks, 28°, Cl, SbCl6): 64 µg/mL | Zone (zone of inhibition) (Aureobasidium pullulans; Conc. 0.25% in vinyl acetate paint, three weeks, 27°-28°, SbCl6): 20 mm | Zone (zone of inhibition) (Aureobasidium pullulans; Conc. 0.5% in vinyl acetate paint, three weeks, 27°-28°, SbCl6): 20 mm

Structure (SMILES): Cn1sccc1=S [No. 3 (Table VIII)]
MIC (Ps. aeruginosa; [5]): 125 µg/mL (≈ 953 µM) | MIC (Ps. aeruginosa; [6]): 250 µg/mL (≈ 1910 µM) | MIC (Ps. aeruginosa; [7]): 250 µg/mL (≈ 1910 µM) | MIC (Ps. aeruginosa; [8]): 250 µg/mL (≈ 1910 µM)

Structure (SMILES): C[n+]1sc(Cl)c(Cl)c1Cl.O=S(=O)([O-])C(F)(F)F [No. 4 (Table I), 2-Methyl-3,4,5-trichloroisothiazolium trifluoromethane sulfonate]
MIC (Ps. aeruginosa; [5]): 2 µg/mL | MIC (Ps. aeruginosa; [6]): 2 µg/mL | MIC (Ps. aeruginosa; [7]): 16 µg/mL | MIC (Ps. aeruginosa; [8]): 64 µg/mL

Structure (SMILES): Cn1scc(Cl)c1=S [No. 4 (Table VIII)]
MIC (Ps. aeruginosa; [5]): < 32 µg/mL | MIC (Ps. aeruginosa; [6]): 62 µg/mL (≈ 374 µM) | MIC (Ps. aeruginosa; [7]): 62 µg/mL (≈ 374 µM) | MIC (Ps. aeruginosa; [8]): 62 µg/mL (≈ 374 µM)

MIC (Ps. aeruginosa; [1]): 250 µg/mL (≈ 1050 µM) | MIC (Ps. aeruginosa; [2]): 125 µg/mL (≈ 526 µM) | MIC (Ps. aeruginosa; [3]): 125 µg/mL (≈ 526 µM) | MIC (Ps. aeruginosa; [4]): 62 µg/mL (≈ 261 µM)
Structure (SMILES): CCOC(=O)c1sn(C)c(=S)c1Cl [No. 5 (Table VIII)]

MIC (Ps. aeruginosa; [1]): 16 µg/mL (≈ 83.9 µM) | MIC (Ps. aeruginosa; [2]): 125 µg/mL (≈ 656 µM) | MIC (Ps. aeruginosa; [3]): 250 µg/mL (≈ 1310 µM) | MIC (Ps. aeruginosa; [4]): 250 µg/mL (≈ 1310 µM)
Structure (SMILES): Cn1sc(C#N)c(Cl)c1=S [No. 6 (Table VIII)]

MIC (Ps. aeruginosa; [1]): 4 µg/mL | MIC (Ps. aeruginosa; [2]): 8 µg/mL | MIC (Ps. aeruginosa; [3]): 8 µg/mL | MIC (Ps. aeruginosa; [4]): 32 µg/mL
Structure (SMILES): CC[n+]1sc(Cl)c(Cl)c1Cl.F[B-](F)(F)F [No. 7 (Table I), 2-Ethyl-3,4,5-trichloroisothiazolium tetrafluoroborate]

Structure (SMILES): CCC[n+]1sc(Cl)c(Cl)c1Cl.O=S(=O)([O-])C(F)(F)F [No. 10 (Table I), 2-Propyl-3,4,5-trichloroisothiazolium trifluoromethane sulfonate]
MIC (Ps. aeruginosa; [1]): < 32 µg/mL | MIC (Ps. aeruginosa; [2]): < 32 µg/mL | MIC (Ps. aeruginosa; [3]): < 32 µg/mL | MIC (Ps. aeruginosa; [4]): < 32 µg/mL

Structure (SMILES): C[n+]1sccc1Cl [No. 13 (Table I), 3-Chloro-2-methylisothiazolium fluorosulfonate]
Minimum Inhibitory Concentration (Ps. aeruginosa; cutting oil emulsion, incubation 1 week, 28°, H, O3SF): 32 µg/mL | Minimum Inhibitory Concentration (Ps. aeruginosa; cutting oil emulsion, incubation 2 weeks, 28°, H, O3SF): 32 µg/mL | Minimum Inhibitory Concentration (Ps. aeruginosa; cutting oil emulsion, incubation 3 weeks, 28°, H, O3SF): 32 µg/mL | Minimum Inhibitory Concentration (Ps. aeruginosa; cutting oil emulsion, incubation 4 weeks, 28°, H, O3SF): 32 µg/mL

Structure (SMILES): C[n+]1sccc1Cl [No. 14 (Table I)]
Minimum Inhibitory Concentration (Ps. aeruginosa; cutting oil emulsion, incubation 1 week, 28°, H, O3SOMe): 64 µg/mL | Minimum Inhibitory Concentration (Ps. aeruginosa; cutting oil emulsion, incubation 2 weeks, 28°, H, O3SOMe): 64 µg/mL | Minimum Inhibitory Concentration (Ps. aeruginosa; cutting oil emulsion, incubation 3 weeks, 28°, H, O3SOMe): 64 µg/mL | Minimum Inhibitory Concentration (Ps. aeruginosa; cutting oil emulsion, incubation 4 weeks, 28°, H, O3SOMe): 64 µg/mL

Structure (SMILES): C[n+]1sccc1Cl.O=[N+]([O-])[O-] [No. 15 (Table I), 2-Methyl-3-chloroisothiazolium nitrate]
MIC (Ps. aeruginosa; [5]): 8 µg/mL | MIC (Ps. aeruginosa; [6]): 8 µg/mL | MIC (Ps. aeruginosa; [7]): 8 µg/mL | MIC (Ps. aeruginosa; [8]): 8 µg/mL
